Measurements: PubChem BioAssay AID342 (DTP/NCI, 2004)
“And” between values parts separate entries of the source, which are not always exact repeats. Equal values may be shown once.

Test system: Swiss mice, Sarcoma 180 sc, mean tumor weight T/C
Test: NCI In Vivo Anticancer Drug Screen. Data for tumor model Sarcoma 180 (subcutaneous) in Swiss mice
Conditions: endpoint: mean tumor weight, higher = larger tumour
Method: The antitumor activity of compounds was measured in mice bearing transplantable tumors. Survival or tumor size were measured and the results are expressed as the measurement made in the treated group (T) divided by the measurement made in the vehicle treated control group (C). The tumor model used in this assay is Sarcoma 180 (subcutaneous) in Swiss mice

[1] = dose: 100.0 mg/kg/injection, schedule: Q01DX007 (ip), vehicle: saline
[2] = dose: 75.0 mg/kg/injection, schedule: Q#A X014 (ip), vehicle: methylcellulose (MC)
[3] = dose: 100.0 mg/kg/injection, schedule: Q#A X014 (ip), vehicle: methylcellulose (MC)
[4] = dose: 125.0 mg/kg/injection, schedule: Q01DX007 (ip), vehicle: carboxymethylcellulose (CMC)
[5] = dose: 250.0 mg/kg/injection, schedule: Q01DX007 (ip), vehicle: carboxymethylcellulose (CMC)
[6] = dose: 16.0 mg/kg/injection, schedule: Q01DX007 (ip), vehicle: saline

In the case of NCCCC(NC(=O)CCCCCCCCN=C(N)N)C(O)CCCCCCCCN=C(N)N (stereo not given), the T/C (dose: 0.38 mg/kg/injection, schedule: Q01DX007 (ip), vehicle: carboxymethylcellulose (CMC)) is reported as 100 % of control, the T/C (dose: 0.75 mg/kg/injection, schedule: Q01DX007 (ip), vehicle: carboxymethylcellulose (CMC)) is reported as 97 % of control and the T/C (dose: 1.5 mg/kg/injection, schedule: Q01DX007 (ip), vehicle: carboxymethylcellulose (CMC)) is reported as 113 % of control. For the same molecule, the T/C (dose: 3.0 mg/kg/injection, schedule: Q01DX007 (ip), vehicle: carboxymethylcellulose (CMC)) was 76 % of control, the T/C (dose: 6.0 mg/kg/injection, schedule: Q01DX007 (ip), vehicle: carboxymethylcellulose (CMC)) was 92 % of control and the T/C (dose: 9.0 mg/kg/injection, schedule: Q01DX007 (ip), vehicle: carboxymethylcellulose (CMC)) was 123 % of control. The T/C (dose: 12.0 mg/kg/injection, schedule: Q01DX007 (ip), vehicle: carboxymethylcellulose (CMC)) was 68 % of control and the T/C (dose: 15.0 mg/kg/injection, schedule: Q01DX007 (ip), vehicle: carboxymethylcellulose (CMC)) was 47 % of control.
With CN1C=c2c3c(ccc2=C2C=CC4C=C5OCOC5=CC4=C21)OCO3 (stereo not given) the T/C (dose: 1.3 mg/kg/injection, schedule: Q#A X014 (ip), vehicle: saline) was 105 % of control, the T/C (dose: 2.0 mg/kg/injection, schedule: Q#A X014 (ip), vehicle: saline) was 82 % of control and the T/C (dose: 3.0 mg/kg/injection, schedule: Q#A X014 (ip), vehicle: saline) was 79 % of control and 96 % of control. For the same molecule, the T/C (dose: 10.0 mg/kg/injection, schedule: Q#A X014 (ip), vehicle: saline) was 28 % of control, the T/C (dose: 12.0 mg/kg/injection, schedule: Q#A X014 (oral), vehicle: saline) was 84 % of control and the T/C (dose: 18.0 mg/kg/injection, schedule: Q#A X014 (oral), vehicle: saline) was 70 % of control. The T/C (dose: 27.0 mg/kg/injection, schedule: Q#A X014 (oral), vehicle: saline) was 73 % of control and the T/C (dose: 60.0 mg/kg/injection, schedule: Q#A X014 (oral), vehicle: saline) was 53 % of control.
For O=C1c2ccccc2-c2c3c(cc4ccnc1c24)OCO3, the T/C (dose: 45.0 mg/kg/injection, schedule: Q01DX007 (ip), vehicle: saline) was 81 % of control, the T/C (dose: 65.0 mg/kg/injection, schedule: Q01DX007 (ip), vehicle: saline) was 67 % of control and the T/C [1] was 75 % of control. The T/C (dose: 150.0 mg/kg/injection, schedule: Q01DX007 (ip), vehicle: saline) was 47 % of control.
For CN1CC(=O)N=C1N, the T/C (dose: 500.0 mg/kg/injection, schedule: Q#A X014 (ip), vehicle: water) was 74 % of control and the T/C (dose: 1500.0 mg/kg/injection, schedule: Q#A X014 (ip), vehicle: water) was 73 % of control.
In the case of CO[C@@H]1[C@@H](OC2OC(C)C(OC3CC(C)(O)C(OC(=O)CC(C)C)C(C)O3)C(N(C)C)C2O)[C@@H](CC=O)C[C@@H](C)C(=O)/C=C/C2O[C@H]2C[C@@H](C)OC(=O)C[C@H]1OC(C)=O (stereo not given in full), the T/C (dose: 25.0 mg/kg/injection, schedule: Q#A X014 (ip), vehicle: methylcellulose (MC)) is reported as 86 % of control, the T/C (dose: 50.0 mg/kg/injection, schedule: Q#A X014 (ip), vehicle: methylcellulose (MC)) is reported as 116 % of control and the T/C [2] is reported as 88 % of control. For the same molecule, the T/C [3] was 95 % of control, the T/C (dose: 100.0 mg/kg/injection, schedule: Q#A X014 (ip), vehicle: other) was 96 % of control and the T/C (dose: 125.0 mg/kg/injection, schedule: Q#A X014 (ip), vehicle: methylcellulose (MC)) was 75 % of control. For the same molecule, the T/C (dose: 125.0 mg/kg/injection, schedule: Q#A X014 (ip), vehicle: other) was 113 % of control, the T/C (dose: 150.0 mg/kg/injection, schedule: Q#A X014 (ip), vehicle: other) was 65 % of control and the T/C (dose: 175.0 mg/kg/injection, schedule: Q#A X014 (ip), vehicle: other) was 57 % of control.
In the case of OCC1OC(n2cnc3c(=S)nc[nH]c32)C(O)C1O (stereo not given), the T/C (dose: 10.7 mg/kg/injection, schedule: Q01DX007 (ip), vehicle: carboxymethylcellulose (CMC)) is reported as 51 % of control, the T/C (dose: 17.04 mg/kg/injection, schedule: Q01DX007 (ip), vehicle: carboxymethylcellulose (CMC)) is reported as 61 % of control and the T/C (dose: 20.0 mg/kg/injection, schedule: Q#A X014 (ip), vehicle: methylcellulose (MC)) is reported as 63 % of control. The T/C (dose: 21.3 mg/kg/injection, schedule: Q01DX007 (ip), vehicle: carboxymethylcellulose (CMC)) was 40 % of control and 64 % of control, the T/C (dose: 28.4 mg/kg/injection, schedule: Q01DX007 (ip), vehicle: carboxymethylcellulose (CMC)) was 48 % of control and the T/C (dose: 37.5 mg/kg/injection, schedule: Q#A X014 (ip), vehicle: methylcellulose (MC)) was 56 % of control. For the same molecule, the T/C (dose: 42.6 mg/kg/injection, schedule: Q01DX007 (ip), vehicle: carboxymethylcellulose (CMC)) was 42 % of control and 46 % of control, the T/C (dose: 62.0 mg/kg/injection, schedule: Q01DX007 (ip), vehicle: carboxymethylcellulose (CMC)) was 44 % of control and the T/C [2] was 22 % of control. The T/C (dose: 85.2 mg/kg/injection, schedule: Q01DX007 (ip), vehicle: carboxymethylcellulose (CMC)) was 41 % of control and 44 % of control, the T/C [3] was 20 % of control and 24 % of control and the T/C [4] was 59 % of control. The T/C [5] was 25 % of control, the T/C (dose: 300.0 mg/kg/injection, schedule: Q01DX007 (ip), vehicle: carboxymethylcellulose (CMC)) was 21 % of control and the T/C (dose: 400.0 mg/kg/injection, schedule: Q01DX007 (ip), vehicle: carboxymethylcellulose (CMC)) was 19 % of control. For the same molecule, the T/C (dose: 450.0 mg/kg/injection, schedule: Q01DX007 (ip), vehicle: carboxymethylcellulose (CMC)) was 11 % of control.
For COC(=O)C1C2CC3c4[nH]c5cc(OC)ccc5c4CCN3CC2CC(OC(=O)c2cc(OC)c(OC)c(OC)c2)C1OC (stereo not given), the T/C (dose: 0.5 mg/kg/injection, schedule: Q01DX007 (ip), vehicle: saline) was 155 % of control, the T/C (dose: 1.0 mg/kg/injection, schedule: Q01DX007 (ip), vehicle: saline) was 85 % of control and the T/C (dose: 2.0 mg/kg/injection, schedule: Q01DX007 (ip), vehicle: saline) was 62 % of control. The T/C (dose: 4.0 mg/kg/injection, schedule: Q01DX007 (ip), vehicle: saline) was 83 % of control and 85 % of control, the T/C (dose: 8.0 mg/kg/injection, schedule: Q01DX007 (ip), vehicle: saline) was 115 % of control and the T/C [6] was 92 % of control. For the same molecule, the T/C (dose: 32.0 mg/kg/injection, schedule: Q01DX007 (ip), vehicle: saline) was 90 % of control.
In the case of CNNCc1ccc(C(=O)NC(N)=O)cc1, the T/C [1] is reported as 40 % of control, the T/C [4] is reported as 38 % of control and the T/C (dose: 148.0 mg/kg/injection, schedule: Q01DX007 (ip), vehicle: saline) is reported as 42 % of control. For the same molecule, the T/C (dose: 222.0 mg/kg/injection, schedule: Q01DX007 (ip), vehicle: saline) was 18 % of control, the T/C [5] was 30 % of control and the T/C (dose: 333.0 mg/kg/injection, schedule: Q01DX007 (ip), vehicle: saline) was 37 % of control.
With CC1=C(CO)C(=O)O[C@@H]([C@@H](C)[C@H]2CC[C@H]3[C@@H]4C[C@H]5O[C@]56[C@@H](O)C=CC(=O)[C@]6(C)[C@H]4CC[C@]23C)C1 the T/C (dose: 10.0 mg/kg/injection, schedule: Q01DX007 (ip), vehicle: carboxymethylcellulose (CMC)) was 64 % of control, the T/C (dose: 13.3 mg/kg/injection, schedule: Q01DX007 (ip), vehicle: saline) was 97 % of control and the T/C (dose: 13.7 mg/kg/injection, schedule: Q01DX007 (ip), vehicle: saline) was 85 % of control. For the same molecule, the T/C [6] was 77 % of control, the T/C (dose: 16.0 mg/kg/injection, schedule: Q01DX007 (sc), vehicle: olive oil, sesame oil, peanut oil) was 90 % of control and the T/C (dose: 16.0 mg/kg/injection, schedule: Q01DX007 (sc), vehicle: steriod suspending solution) was 93 % of control. The T/C (dose: 18.0 mg/kg/injection, schedule: Q01DX007 (ip), vehicle: saline) was 60 % of control, the T/C (dose: 24.0 mg/kg/injection, schedule: Q01DX007 (ip), vehicle: saline) was 54 % of control and the T/C (dose: 24.0 mg/kg/injection, schedule: Q01DX007 (sc), vehicle: olive oil, sesame oil, peanut oil) was 109 % of control. The T/C (dose: 24.0 mg/kg/injection, schedule: Q01DX007 (sc), vehicle: steriod suspending solution) was 66 % of control, the T/C (dose: 33.0 mg/kg/injection, schedule: Q01DX007 (ip), vehicle: saline) was 25 % of control and the T/C (dose: 36.0 mg/kg/injection, schedule: Q01DX007 (sc), vehicle: olive oil, sesame oil, peanut oil) was 77 % of control. For the same molecule, the T/C (dose: 36.0 mg/kg/injection, schedule: Q01DX007 (sc), vehicle: steriod suspending solution) was 79 % of control.
With CC(C)CN(C)/N=N/c1nc[nH]c1C(N)=O the T/C (dose: 25.0 mg/kg/injection, schedule: Q01DX007 (ip), vehicle: carboxymethylcellulose (CMC)) was 92 % of control and the T/C (dose: 50.0 mg/kg/injection, schedule: Q01DX007 (ip), vehicle: carboxymethylcellulose (CMC)) was 41 % of control.
For C=CCSc1ncnc2c1ncn2C1OC(CO)C(O)C1O (stereo not given), the T/C (dose: 25.0 mg/kg/injection, schedule: Q01DX007 (ip), vehicle: saline) was 80 % of control and 83 % of control, the T/C [1] was 35 % of control and 52 % of control and the T/C (dose: 200.0 mg/kg/injection, schedule: Q01DX007 (ip), vehicle: saline) was 34 % of control and 49 % of control.
In the case of CN(C)C1=C(Cl)C(=O)C(=O)c2cccnc21, the T/C (dose: 6.25 mg/kg/injection, schedule: Q01DX007 (ip), vehicle: water) is reported as 89 % of control and the T/C (dose: 12.5 mg/kg/injection, schedule: Q01DX007 (ip), vehicle: water) is reported as 81 % of control.
